Structures can show the parent of a compound that is named as a salt.
Target: T1, human 5-HT6 receptor (Homo sapiens, UniProt P50406)
T1 construct: expressed in transfected cells
Assay: 5-HT6 receptor binding assay ([3H]-LSD competition)
Conditions: membranes of NIH 3T3 cells stably expressing the human 5-HT6 gene; [3H]-LSD radioligand; IC50 converted to pKi by Cheng-Prusoff equation; read-out: pKi (affinity for the 5-HT6 receptor) (converted)
Procedure: The ability of the compounds of the invention to interact with the 5-HT6 receptor is established in (competitive) binding studies to NIH 3T3 cells stably expressing the human 5-HT6 receptor.
NIH 3T3 cells stably expressing the human 5-HT6 gene were grown at 37° C. in a 5% CO2 atmosphere in DMEM supplemented with 10% cosmic calf serum (Hyclone) and subcultured when confluent. Cells were harvested by trypsination (Sigma) and membranes prepared by homogenisation followed by centrifugation in […] Tris buffer (pH 7.4) containing […] magnesium sulphate and […] EDTA. Radioligand binding assays were performed in 96 well polystyrene deep well plates (Semat) in a final volume of 500 μl, consisting of 100 μl of competing drug, 100 μl of 10 nmole·L^−1 [^3H]-lysergic acid diethylamide (LSD) and 300 μl of diluted membrane expressing the 5-HT6 receptor. All test compounds were dissolved in DMSO (dimethyl-sulfoxide) at 10 mM and serially diluted is assay buffer to give a six-fold concentration range (between 0.01 nM and 100 μM). Non-specific binding was determined with 10 μM Methiothepin. Plates were incubated at room temperature for 90 minutes. The reactions were terminated by rapid filtration using a Packard harvester onto 96 well GF/B filter plates (Packerd Unifilter) presoaked with 0.3% w/N polyethyleneimine, washed 3 times with ice-cold assay buffer (1 ml), oven dried and 50 μl Microscint-20 added. The retained radioactivity was then determined using a scintillation counter.
Data were analysed using standard curve fitting procedures (Graphpad: four parameter logistic equation) to produce IC50 values for active compounds (where IC50 is the concentration of test compound causing 50% inhibition of binding). IC50 values were conerted to pKi values using the Cheng-Prusoff equation 1 (Cheng, Y. and Prosoff, W. H., Biochem. Pharmacol. 22, 3099-3108, 1973).

T1 sequence (P50406 whole entry): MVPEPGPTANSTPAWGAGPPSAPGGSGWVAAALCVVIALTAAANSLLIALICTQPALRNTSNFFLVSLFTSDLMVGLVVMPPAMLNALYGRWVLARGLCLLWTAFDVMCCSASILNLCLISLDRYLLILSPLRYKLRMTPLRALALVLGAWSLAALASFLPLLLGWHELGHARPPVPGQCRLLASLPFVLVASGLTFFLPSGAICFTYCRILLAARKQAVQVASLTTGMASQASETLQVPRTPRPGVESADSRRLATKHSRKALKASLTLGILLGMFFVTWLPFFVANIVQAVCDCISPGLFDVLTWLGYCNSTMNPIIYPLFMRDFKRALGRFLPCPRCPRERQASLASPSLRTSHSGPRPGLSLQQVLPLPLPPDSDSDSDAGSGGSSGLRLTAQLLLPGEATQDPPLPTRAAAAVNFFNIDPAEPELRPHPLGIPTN

| SMILES | Ki [nM] |
| --- | --- |
| COc1ccc(S(=O)(=O)N2CC(C(=O)NCCC3CCCN3C)c3ccccc32)c2ccccc12 (centres unmarked) [Example 1, 1-(4-Methoxynaphthalene-1-sulfonyl)-2,3-dihydro-1H-indole-3-carboxylic acid [2-(1-methyl-pyrrolidin-2-yl)-ethyl]amide] | < 31.6 |
| COc1ccc(S(=O)(=O)N2CC(C(=O)NC3CCCN(C)C3)c3ccccc32)c2ccccc12 (centres unmarked) [Example 2, 1-(4-Methoxynaphthalene-1-sulfonyl)-2,3-dihydro-1H-indole-3-carboxylic acid (1-methyl-piperidin-3-yl)amide] | < 31.6 |
| COc1ccc(S(=O)(=O)N2CC(C(=O)N3CCNCC3)c3ccccc32)c2ccccc12 (centres unmarked) [Example 17, [1-(4-Methoxynaphthalene-1-sulfonyl)-2,3-dihydro-1H-indol-3-yl]-piperazin-1-yl-methanone] | < 31.6 |
| CCN(CC)CCNC(=O)C1CN(S(=O)(=O)c2ccc(OC)c3ccccc23)c2ccccc21 (centres unmarked) [Example 24, 1-(4-Methoxynaphthalene-1-sulfonyl)-2,3-dihydro-1H-indole-3-carboxylic acid (2-diethylamino-ethyl)-amide] | < 31.6 |
| COc1ccc(S(=O)(=O)N2CC(C(=O)NC3CCN(C)CC3)c3ccccc32)c2ccccc12 (centres unmarked) [Example 25, 1-(4-Methoxynaphthalene-1-sulfonyl)-2,3-dihydro-1H-indole-3-carboxylic acid (1-methyl-piperidin-4-yl)-amide] | < 31.6 |
| COc1ccc(S(=O)(=O)N2CC(C(=O)NC3CC4CCC(C3)N4C)c3ccccc32)c2ccccc12 (centres unmarked) [Example 31, 1-(4-Methoxynaphthalene-1-sulfonyl)-2,3-dihydro-1H-indole-3-carboxylic acid (8-methyl-8-aza-bicyclo[3.2.1]oct-3-yl)amide] | < 31.6 |
| COc1ccc(S(=O)(=O)N2CC(C(=O)N(C)C3CCN(C)CC3)c3ccccc32)c2ccccc12 (centres unmarked) [Example 35, 1-(4-Methoxynaphthalene-1-sulfonyl)-2,3-dihydro-1H-indole-3-carboxylic acid methyl-(1-methyl-piperidin-4-yl)-amide] | < 31.6 |
| CN1CCC(N(C)C(=O)C2CN(S(=O)(=O)c3cccc(C(F)(F)F)c3)c3ccccc32)CC1 (centres unmarked) [Example 39, 1-(3-Trifluoromethyl-benzenesulfonyl)-2,3-dihydro-1H-indole-3-carboxylic acid methyl-(1-methyl-piperidin-4-yl)-amide trifluoroacetate] | < 31.6 |
| CN1CCC(N(C)C(=O)C2CN(S(=O)(=O)c3cccc(Br)c3)c3ccccc32)CC1 (centres unmarked) [Example 40, 1-(3-Bromo-benzenesulfonyl)-2,3-dihydro-1H-indole-3-carboxylic acid methyl-(1-methyl-piperidin-4-yl)-amide trifluoroacetate] | < 31.6 |
| CN1CCC(N(C)C(=O)C2CN(S(=O)(=O)c3ccc(OC(F)(F)F)cc3)c3ccccc32)CC1 (centres unmarked) [Example 42, 1-(4-Trifluoromethoxy-benzenesulfonyl)-2,3-dihydro-1H-indole-3-carboxylic acid methyl-(1-methyl-piperidin-4-yl)-amide trifluoroacetate] | < 31.6 |
| CN1CCC(N(C)C(=O)C2CN(S(=O)(=O)c3ccc(C(F)(F)F)cc3)c3ccccc32)CC1 (centres unmarked) [Example 50, 1-(4-Trifluoromethyl-benzenesulfonyl)-2,3-dihydro-1H-indole-3-carboxylic acid methyl-(1-methyl-piperidin-4-yl)-amide trifluoroacetate] | < 31.6 |
| CN1CCC(N(C)C(=O)C2CN(S(=O)(=O)c3cc(Cl)sc3Cl)c3ccccc32)CC1 (centres unmarked) [Example 51, 1-(2,5-Dichloro-thiophene-3-sulfonyl)-2,3-dihydro-1H-indole-3-carboxylic acid methyl-(1-methyl-piperidin-4-yl)-amide trifluoroacetate] | < 31.6 |
| CN1CCC(N(C)C(=O)C2CN(S(=O)(=O)c3ccc4c(c3)CCO4)c3ccccc32)CC1 (centres unmarked) [Example 55, 1-(2,3-Dihydro-benzofuran-5-sulfonyl)-2,3-dihydro-1H-indole-3-carboxylic acid methyl-(1-methyl-piperidin-4-yl)-amide trifluoroacetate] | < 31.6 |
| CN1CCC(N(C)C(=O)C2CN(S(=O)(=O)c3ccc4ccccc4c3)c3ccccc32)CC1 (centres unmarked) [Example 58, 1-(Naphthalene-2-sulfonyl)-2,3-dihydro-1H-indole-3-carboxylic acid methyl-(1-methyl-piperidin-4-yl)-amide trifluoroacetate] | < 31.6 |
| CN1CCC(N(C)C(=O)C2CN(S(=O)(=O)c3cccc4ccccc34)c3ccccc32)CC1 (centres unmarked) [Example 59, 1-(Naphthalene-1-sulfonyl)-2,3-dihydro-1H-indole-3-carboxylic acid methyl-(1-methyl-piperidin-4-yl)-amide trifluoroacetate] | < 31.6 |
| CN1CCC(N(C)C(=O)C2CN(S(=O)(=O)c3cccc(-c4ccccc4)c3)c3ccccc32)CC1 (centres unmarked) [Example 60, 1-(Biphenyl-3-sulfonyl)-2,3-dihydro-1H-indole-3-carboxylic acid methyl-(1-methyl-piperidin-4-yl)-amide trifluoroacetate] | < 31.6 |
| CN1CCC(N(C)C(=O)C2CN(S(=O)(=O)c3csc4ccccc34)c3ccccc32)CC1 (centres unmarked) [Example 62, 1-(Benzo[b]thiophene-3-sulfonyl)-2,3-dihydro-1H-indole-3-carboxylic acid methyl-(1-methyl-piperidin-4-yl)-amide trifluoroacetate] | < 31.6 |
| COc1ccc(S(=O)(=O)N2CC(C(=O)N(C)C3CCN(C)CC3)c3ccccc32)cc1Br (centres unmarked) [Example 69, 1-(3-Bromo-4-methoxy-benzenesulfonyl)-2,3-dihydro-1H-indole-3-carboxylic acid methyl-(1-methyl-piperidin-4-yl)-amide trifluoroacetate] | < 31.6 |
| CN1CCC(N(C)C(=O)C2CN(S(=O)(=O)c3cccc4c(Cl)cccc34)c3ccccc32)CC1 (centres unmarked) [Example 71, 1-(5-Chloro-naphthalene-1-sulfonyl)-2,3-dihydro-1H-indole-3-carboxylic acid methyl-(1-methyl-piperidin-4-yl)-amide trifluoroacetate] | < 31.6 |
| Cc1cc(S(=O)(=O)N2CC(C(=O)N(C)C3CCN(C)CC3)c3ccccc32)c(C(F)(F)F)o1 (centres unmarked) [Example 109, 1-(5-Methyl-2-trifluoromethyl-furan-3-sulphonyl)-2,3-dihydro-1H-indole-3-carboxylic acid methyl-(1-methyl-piperidin-4-yl)-amide] | < 31.6 |

Reference: patent US7838518B2, “1-arylsulfonyl-3-substituted indole and indoline derivatives useful in the treatment of central nervous system disorders” (N.V. Organon, priority 2002, dated 2010)
